Entries after “also recorded” stand apart in the source; their conditions may differ. Read-outs that look alike come from different tables or passages of the source.
What was measured:
[1] = tested on: HTLV-I reverse transcriptase; details: MT-2 (HTLV-I-infected) cells, FIG. 7
Procedure: MT-2 is a lymphocytic cell-line that is transformed by, and is antigen positive for HTLV-I. HTLV-I can be detected in supernatants of MT-2 cultures by monitoring reverse transcriptase activity. Using the MT-2 system compounds that are inhibitors of HTLV-I reverse transciptase can be identified. MT-2 cells are washed and incubated in triplicate with various concentrations of the test compounds, positive drug controls, negative drug controls or media alone. A cell-line that is negative for HTLV-I, such as H9, is used as a negative reverse transcriptase control. After 72 hours of incubation, culture supernatants are harvested and tested for reverse transcriptase activity as described (25). Inhibition of reverse transcriptase activity is calculated by comparing the radioactive counts in the experimental compounds to the MT-2 non-drug controls. ED50's can be calculated for each compound.

[2] = molecular target: T1, HIV-1 reverse transcriptase (RT) (Human immunodeficiency virus type 1 group M subtype B, UniProt P04585); experiment: Time-dependent (irreversible) inhibition of HIV-1 reverse transcriptase after preincubation; type: biochemical
T1 construct: Recombinant HIV-1 reverse transcriptase (RT) was obtained from Worthington (Freehold, N.J.); purchased Worthington (Freehold, N.J.)
Procedure: FIG. 6. […] RT was preincubated for the times indicated with oltipraz dissolved in DPBS containing 1 mg/ml bovine serum albumin, 0.13% DMSO, and either 4 μM TTP or 5 μg/ml poly(A):2.5 μg/ml oligo(dT). After incubation, 10 μl aliquots in triplicate were added to 25 μl of a reaction cocktail containing 4 μM TTP, 5 μg/ml poly(A), and 2.5 μg/ml oligo(dT) and assayed for TTP incorporation into DNA over 30 min. as described by Flexner, et al. (25). The insets are Kitz-Wilson transformations (41).
Reverse transcriptase assays were performed as described by Flexner, et al. (25) using recombinant HIV-1 RT as the source of enzyme. Dilutions and assay were carried out in 96-well "half-area" plates. The enzyme with various concentrations of test compounds were dissolved in DPBS containing 1% w/v BSA and diluted in 50 μl volumes; 10 μl aliquots in triplicate were transferred to another plate for the enzyme assay. The reactions were initiated by the addition of 25 μl/well of buffer containing 50 mM Tris.cndot.Cl (pH 8.0), 75 mM KCl, 1 mM dithiothreitol, 2 mM MgCl2, 5 μg/ml poly(A), 2.5 μg/ml oligo (dT), 10 μCi/ml ^32 p TTP with or without unlabeled TTP. […] TTP incorporation was measured by spotting 20 μl of the reaction cocktail onto DE81 paper, washing the paper with 4×5 min washes of 300 mM NaCl and 30 mM sodium citrate (pH 7.0), drying the paper, and counting the paper by liquid scintillation counting. The assays performed with oltipraz and 1,2-dithiole-3-thione contained 0.29% final concentration DMSO.

[3] = cited from earlier work
[4] = single 250 mg dose, adults, cited from earlier work
H9 cells = experiment: Cytotoxicity in H9 cells by trypan blue exclusion; type: cell-based, human; details: concentrations up to 120 μM, H9 cells
Procedure: (§1) The effects for test compounds were assessed by means of both IFA and p24 release. In general, the following protocol was followed: H9 cells were infected with HIV-1 at 1000 50% infective doses of viruses/10^6 cells. Virus was allowed to adsorb for 1 h, after which unadsorbed virus was removed by centrifugation. The cells were resuspended and washed twice with PBS (without Ca^+2 or Mg^+2 salts) and centrifuged to collect the cell pellet (150×g×10 min). Cells were suspended in fresh medium and added at a final cell density of 500,000 cells/ml in a 96-well plate with media containing 0.1% DMSO and various concentrations of test compounds. The cells were re-fed freshly prepared media containing 0.1% DMSO±test compounds on day four (for preinduction experiments, cells were exposed to inducers on days -2, 0, and +4 days relative to infection). After seven days, cells were examined for cytoxicity by trypan blue exclusion, the degree of infection with HIV-1 by IFA, and the supernatants were assayed for p24 levels according to the manufacturer's directions. The IFA procedure can be summarized as follows: The cells were washed twice in PBS and were placed in 5 mm 12-well slides. After allowing the slides to dry and fixing the cells with acetone for 5 min, 10 μl of HIV-1 positive serum in 40 μl PBS was added to each well and allowed to incubate at 37° C. for 30 min. After incubation, the slides were washed twice with PBS and incubated at 37° C. for 30 min with 2.5 μl goat anti-human IgG-fluorescein isothiocyanate conjugate in 50 μl PBS containing 0.01% Evans Blue per well. The slides were then washed twice with PBS, dried, and mounted with 50% glycerol in PBS, and scored for the percentage of fluorescent cells by fluorescent microscopy.

[5] = tested on: glutathione levels (GSH) in H9 cells; experiment: Elevation of glutathione (GSH) levels in H9 cells; type: cell-based, human; details: for fold induction at 30 µM / fold induction at 60 µM / fold induction at 120 µM: Homo sapiens, read-out: Glutathione levels, treated to control value
Procedure: Five ml of medium was added to T-25 flasks and DMSO containing tests compounds were added to a final concentration of 0.1%. Control medium contained 0.1% DMSO. After the drugs were added, 5×10^6 cells in 5 ml of medium was added to each T-25 flask. The cells were grown at 37° C. in a humidified incubator supplemented with 5% CO2 until harvested (N=3 flasks/group). At the indicated times, cells were isolated by centrifugation (500×g×10 min) and were washed three times by adding 10 ml of ice-cold DPBS, mixing, and centrifuging in a refrigerated centrifuge (500×g×10 min) to isolate the cell pellets. The cells were then lysed by the addition of 400 μl of ice-cold DPBS containing 0.5% Triton X-100 and vortexing. Supernatants were then isolated by centrifuging the lysates (5000×g×20 min). Samples were kept on ice or refrigerated until the reagents for QR or GSH spectrophotometric assays were added to the aliquoted microtiter plates. QR levels were determined by aliquoting 10 μl/well of supernatant in a 96-well plate and measuring the activity by the assay described by Prochaska and Santamaria (20) except that the final NADP^+ concentration was 200 μM (21). Samples were assayed in quadruplicate, and dicoumarol inhibitable-rates (which generally represented less than 5% of the total rate) were also measured. Spectrophotometric blanks contained 10 μl of DPBS with 0.5% Triton X-100. For the GSH assay, 300 μl of sample was placed in a centricon-10microconcentrator and centrifuged (5000×g×45 min) until enough ultrafiltrate could be collected. 50 μl/well of sample in quadruplicate was placed in a 96 well "half-area" plate after which 20 μl of 1 mM Ellman's reagent dissolved in DPBS was added. The yellow color (22) developed within 5 min and was scanned with a uvmax microtiter scanner (Palo Alto, Calif.) at 405 nm. Spectrophotometric blanks contained 50 μl DPBS with 0.5% Triton X-100 and 20 μl of 1 mM Ellman's reagent in DPBS. The optical densities of the specimens were calibrated to a GSH standard curve. Protein contents were determined in 3 ml cuvettes by the Bradford method (23). The protein content in the ultrafiltrates employed for GSH determinations were negligible (<0.01 mg/ml).

[6] = tested on: glutathione S-transferases; details: Schistosoma mansoni; cited from earlier work
HIV-1 (HTLVIIIB) = experiment: microbe, parasite or virus in culture; type: cell-based
Procedure: as §1

SMILES: Cc1c(-c2cnccn2)ssc1=S [compound 11, 4-methyl-5-(2-pyrazinyl)-1,2-dithiole-3-thione]
- effect on levels of RT activity in media [1]: dose-dependent effect
- irreversible inhibition of reverse transcriptase ([2]; kinetic behaviour): behaves kinetically as an irreversible inhibitor of RT
- Ki ([2]; preincubation with TTP, experiment of FIG. 6, Kitz-Wilson): 15.6 µM
- RT inactivation in the presence of poly(A):oligo(dT) ([2]; preincubation with poly(A):oligo(dT), FIG. 6 lower, listed as oltipraz): indistinguishable from rates of RT inactivation in its absence; also recorded: inconsistent with irreversible inhibition
- Ki ([2]; preincubation, N=5 independent experiments): 25.9 ± 3.4 µM
- kinact ([2]; preincubation, N=5 independent experiments, read-out: k3 (limiting rate of inactivation) (converted)): 1.44e-05 s⁻¹
- kinact ([2]; read-out: k3 (limiting rate of inactivation), preincubation with TTP, experiment of FIG. 6, Kitz-Wilson): 2.33e-05 s⁻¹
- tolerability at anti-HIV-1 doses ([3]; in vivo): well tolerated
- tolerability of high doses ([3]; single or split doses of 20-35 mg/kg, treatment of schistosomiasis): can be tolerated
- Cmax ([4]; read-out: peak serum level): > 4 µM
- peak serum level [4]: greater than 1 μg/ml
- cytotoxicity (H9 cells): non-cytotoxic
- Glutathione Levels ([5]; 24 h, 30 μM): 62.0 ± 2.0 nmol/mg
- Glutathione Levels ([5]; 24 h, 60 μM): 83.5 ± 1.7 nmol/mg
- Glutathione Levels ([5]; 24 h, 120 μM): 109 ± 28 nmol/mg
- Glutathione Levels ([5]; 48 h, 30 μM): 52.7 ± 2.9 nmol/mg
- Glutathione Levels ([5]; 48 h, 60 μM): 68.0 ± 2.9 nmol/mg
- Glutathione Levels ([5]; 48 h, 120 μM): 79.7 ± 0.28 nmol/mg
- Glutathione Levels ([5]; 72 h, 30 μM): 40.4 ± 4.7 nmol/mg
- Glutathione Levels ([5]; 72 h, 60 μM): 47.3 ± 4.6 nmol/mg
- Glutathione Levels ([5]; 72 h, 120 μM): 75.0 ± 8.6 nmol/mg
- fold induction at 30 µM ([5]; H9, 24 h): 1.1
- fold induction at 60 µM ([5]; H9, 24 h): 1.48
- fold induction at 120 µM ([5]; H9, 24 h): 1.93
- fold induction at 30 µM ([5]; H9, 48 h): 1.52
- fold induction at 60 µM ([5]; H9, 48 h): 1.96
- fold induction at 120 µM ([5]; H9, 48 h): 2.28
- fold induction at 30 µM ([5]; H9, 72 h): 0.86
- fold induction at 60 µM ([5]; H9, 72 h): 1.01
- fold induction at 120 µM ([5]; H9, 72 h): 1.6
- elevation of GSH ([5]; dose- and time-dependent, H9 cells): able to elevate both GSH and QR levels
- inhibition of glutathione S-transferases [6]: irreversibly inhibits
- inhibition of HIV-1 replication, result in words (HIV-1 (HTLVIIIB); H9 cells): effective
- inhibitory potency less than that of AZT (HIV-1 replication) (HIV-1 (HTLVIIIB); H9 cells, relative to AZT (FIG. 3)): approximately 100 fold
- IC50 (HIV-1 (HTLVIIIB); Human immunodeficiency virus 1, H9, read-out: IC50 HIV-1 replication (Exp 1)): 2 µM
- IC50 (HIV-1 (HTLVIIIB); Human immunodeficiency virus 1, H9, read-out: IC50 HIV-1 replication (Exp 2)): 3 µM
- IC50 (HIV-1 (HTLVIIIB); Human immunodeficiency virus 1, H9, read-out: IC50 HIV-1 replication as determined by IFA): 9.7 ± 2 µM
- effect of pre-treatment of H9 cells with inducers on anti-HIV-1 activity (HIV-1 (HTLVIIIB); inducers 3-4 days prior to exposure to virus, listed as oltipraz): did not increase the antiviral effect; also recorded: no enhancement of the anti-HIV-1 activity
